Legend:
[1] = MTT Cell Proliferation Assay (CellTiter 96 AQueous One Solution, MTS); type: cell-based; settings: human; 72 h treatment; cell line not given; read-out: Cytotoxicity [IC50]
Description: The CellTiter 96® AQueous One Solution cell proliferation assay (Promega) was used on MM1.S, Jurkat and HCT-116 cells to study the cytotoxic and cytostatic properties of the compounds. The assay is based on the cleavage of the tetrazolium salt, MTS, in the presence of an electron-coupling reagent PES (phenazine ethosulfate). The MTS tetrazolium compound is bioreduced by cells into a colored formazan product that is soluble in tissue culture medium. This conversion is presumably accomplished by NADPH or NADH produced by dehydrogenase enzymes in metabolically active cells. Assays are performed by adding a small amount of the CellTiter 96® AQueous One solution reagent directly to culture wells, incubating for 1-4 hours and then recording the absorbance at 490 nm with a 96-well plate reader. […] The cells were seeded at 5×10^3 to 1.5×10^4 cells (depending on cell type) in each well of 96-well plate in 100 μL of fresh culture medium and adherent cells were allowed to attach for overnight. The stock solutions of the compounds were diluted in cell culture medium to obtain eight concentrations of each drug, ranging from 1 nM to 30 μM and DMSO at less than 1% v/v was used as a negative control. After 72 h of treatment 20 μl of CellTiter 96® AQueous reagent was added into each well of the 96-well assay plates and the plate was incubate at 37° C. for 1-4 hours in a humidified, 5% CO2 atmosphere. Then the absorbance of each well was recorded at 490 nm by using a 96-well plate reader. In most cases the assay was performed in triplicates and the results were presented as half maximal inhibitory concentration (IC50) described below. Optical density versus compound concentration was plotted and analyzed using non linear regression equations (Excel Fit) and the IC50 for each compound was calculated.

[2] = Pharmacokinetics (plasma AUC) in mice; type: in vivo; settings: mouse, 10 mg/kg po
Method: Blood was collected from mice (N=3) to contribute to the total of 10 time points (pre-dose, 5 min, 15 min, 30 min, 1 hour, 2 hours, 4 hours, 8 hours, 12 hours and 24 hours post dose). Mice were bled on a rotating basis, each mouse contributing 3 time points to the blood collection. At the designated time points, animals were anaesthetized under isoflurane, and approximately 110 μL of blood per time point was collected via retro-orbital puncture into pre-cooled K2EDTA (anti-coagulant) tubes. Blood samples were put on wet ice and centrifuged (2000 g, 5 min at 4° C.) to obtain plasma within 30 minutes of sample collection. All samples were stored frozen at approximately −80° C. until analysis. Prior to analysis, samples were mixed with internal standard (dexamethasone) in acetonitrile, vortexed, centrifuged, and supernatant was injected for analysis. Concentration of compounds in plasma was determined using LC-MS-MS instrumentation (API 4000, Triple Quadruple with electrospray ionization; Acuity Ultra Performance Liquid Chromatography column C18, with MeOH and formic acid as organic solvents). PK parameters including but not limited to Tmax, Cmax, t1/2, AUClast, AUCinf were calculated using WinNonlin Professional 6.2 software package, non-compartmental pharmacokinetic model NCA200.

[3] = Brain to plasma ratio (B:P) in mice; type: in vivo; settings: mouse, brain and plasma, 10 mg/kg po, 2 hours post-dose
Method: Brain tissue following collection was rinsed with cold saline, dried on filter paper, weighed and snap-frozen by placing on dry ice. All samples were stored frozen at approximately −80° C. until analysis. […] Plasma samples were treated with the identical method (except homogenization step) and concentration of compound in either matrix was calculated based on the generated standard curves.

[4] = tested on: cytokines GRO/KC, IFNγ, IL-1B, IL-6, IL-10, IL-12p70 and TNFa; experiment: Plasma cytokine expression after BCCI injury (Luminex); type: in vivo, rats; settings: 6 mg/kg
Method: The expression level of several cytokines in plasma harvested from rats in each treatment group was measured. The samples were received frozen and stored at −80° C. On the day of the experiment, the samples were thawed, diluted four-fold, and analyzed for cytokine expression on a Luminex platform. The samples were analyzed for the cytokines GRO/KC, IFNγ, IL-1B, IL-6, IL-10, IL-12p70 and TNFa, using a multipliex kit manufactured by Millipore. […] The biggest change was in IL-10.

[5] = tested on: collagen-induced arthritis; experiment: Collagen-induced arthritis (CIA) in Lewis rats; type: in vivo
Method: Forty (40) female Lewis rats (BK), aged 6 to 8 weeks with a pre-treatment body weight range of 180 to 200 g were divided randomly into four (4) groups (Groups A-D) of ten (10) rats each. The rats in Groups B to D were immunized intradermally with bovine CII in IFA at three sites near the base of the tail and over the back with 500 μl, of the emulsion on day 0 (200 μL, 200 μL, 100 μL for each site). On day 7, the rats in Groups B-D were given booster injections with the same amount of the emulsion intradermally near the former injection sites. […] Rats were weighed daily and a drug holiday was given to an animal when a weight loss of greater than 13%. CIA development was evaluated via macroscopic scoring and measurements of paw swelling. […] Foot volume was measured by plethysmometry on the same day of the arthritic measurement throughout the study period. The cubage of each hind paw and swelling rate were measured and using the following equation: Swelling Rate=(CN−C0)/C0×100%. […] The clinical scores were summed for each animal, and the total average of all animals in each group was expressed as the mean arthritic score. […] Prepared sections of hind paws were subjected to hematoxylin and eosin (H&E) staining.

Row | AUC(0-inf) [2] | Kp at 2 h [3] | SMILES | IC50 at 72 h [1] | plasma IL-10 compared to vehicle-treated control group [4] | therapeutic efficacy (Clinical Scores, Joint Swelling, histological examination) ([5]; 4 mg/kg (MPK) PO QoD from onset to day 28) | histopathological analysis of hind paws (H&E) ([5]; day 28, 4 mg/kg PO QoD from onset)
1 | 33100 ng·h/mL | 2.25 | CC(C)(C)C(=O)NNC(=O)/C=C\n1cnc(-c2cc(C(F)(F)F)cc(C(F)(F)F)c2)n1 [Compound 1, (Z)-3-(3-(3,5-bis(trifluoromethyl)phenyl)-1H-1,2,4-triazol-1-yl)-N′-pivaloylacrylohydrazide] | < 1000 nM | reduced IL-10 |  | 
2 | 28900 ng·h/mL | 0.16 | O=C(/C=C\n1cnc(-c2cc(C(F)(F)F)cc(C(F)(F)F)c2)n1)NNC(=O)CN1CCOCC1 [Compound 2, (Z)-3-(3-(3,5-bis(trifluoromethyl)phenyl)-1H-1,2,4-triazol-1-yl)-N′-(2-morpholinoacetyl)acrylohydrazide] | < 1000 nM |  | showed the therapeutic efficacy | relatively intact cartilage was found on the joint surface and pannus formation was minimal
